Measured values taken from patent US10696671B2, “Imidazo[1,2-A]pyridine derivatives, methods for preparing the same and use thereof” (Jeil Pharmaceutical Co., Ltd., priority 2016, dated 2020).

Legend:
[1] = biological target: T1, proton pump (H+/K+-ATPase), porcine gastric vesicles (Sus scrofa, UniProt P19156); assay: Inhibitory effects against proton pump (H+/K+-ATPase) activity, malachite green phosphate assay; assay type: biochemical; conditions: pH 6.4, 37° C., K+-dependent activity
T1 construct: reaction buffer (50 mmol/L Tris-Hepes buffer, pH 6.4) containing porcine gastric vesicles; from tissue; host or cells: porcine gastric mucosa (gastric vesicles prepared by centrifugation)
T1 sequence (P19156 2-1034 limits assumed): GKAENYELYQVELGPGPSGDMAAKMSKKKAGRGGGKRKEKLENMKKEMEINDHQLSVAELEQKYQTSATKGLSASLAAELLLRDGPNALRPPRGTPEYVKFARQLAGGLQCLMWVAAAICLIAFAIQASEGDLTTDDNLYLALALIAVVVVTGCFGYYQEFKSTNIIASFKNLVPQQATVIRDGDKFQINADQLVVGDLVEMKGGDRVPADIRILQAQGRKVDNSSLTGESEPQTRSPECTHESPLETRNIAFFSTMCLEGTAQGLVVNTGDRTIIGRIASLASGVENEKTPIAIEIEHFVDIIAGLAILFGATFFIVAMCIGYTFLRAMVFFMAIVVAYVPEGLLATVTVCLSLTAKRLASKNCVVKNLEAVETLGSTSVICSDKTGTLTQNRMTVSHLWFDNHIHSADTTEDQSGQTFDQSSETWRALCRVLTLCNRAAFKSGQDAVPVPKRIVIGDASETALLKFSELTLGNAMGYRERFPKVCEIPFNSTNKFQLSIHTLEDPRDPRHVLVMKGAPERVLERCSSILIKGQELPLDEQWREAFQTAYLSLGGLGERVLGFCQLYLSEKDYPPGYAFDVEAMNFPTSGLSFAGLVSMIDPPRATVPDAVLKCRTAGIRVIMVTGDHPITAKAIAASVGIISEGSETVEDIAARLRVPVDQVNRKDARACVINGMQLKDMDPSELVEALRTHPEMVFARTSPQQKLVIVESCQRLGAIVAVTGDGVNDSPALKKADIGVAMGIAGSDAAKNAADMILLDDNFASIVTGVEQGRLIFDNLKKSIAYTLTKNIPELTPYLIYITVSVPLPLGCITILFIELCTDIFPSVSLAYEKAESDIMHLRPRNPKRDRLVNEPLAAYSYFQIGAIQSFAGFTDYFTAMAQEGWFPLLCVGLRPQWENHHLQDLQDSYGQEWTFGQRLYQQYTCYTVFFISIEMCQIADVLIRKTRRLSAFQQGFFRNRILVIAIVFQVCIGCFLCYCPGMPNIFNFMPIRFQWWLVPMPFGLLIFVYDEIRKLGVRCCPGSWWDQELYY
T1 sequence (P18434 whole entry partner): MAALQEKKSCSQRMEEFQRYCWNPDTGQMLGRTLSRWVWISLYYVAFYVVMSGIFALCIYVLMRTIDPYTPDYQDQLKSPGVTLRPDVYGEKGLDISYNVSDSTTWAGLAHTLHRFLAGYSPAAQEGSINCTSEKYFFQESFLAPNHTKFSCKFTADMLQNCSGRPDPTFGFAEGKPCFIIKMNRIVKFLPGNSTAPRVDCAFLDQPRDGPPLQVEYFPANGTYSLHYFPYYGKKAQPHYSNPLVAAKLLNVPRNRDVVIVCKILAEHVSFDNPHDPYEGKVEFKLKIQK
Experimental: Test Example 1: Preparation of Gastric Vesicles
Gastric vesicles used in the experiment were prepared by separation from porcine gastric mucosa according to a centrifugation method [Saccomani G, et al., A Nonelectrogenic H^+ Pump in Plasma Membranes of Hog Stomach, J Biol Chem., 1976, 251 (23), 7690-8]. Next, the protein content of the gastric vesicles was quantified using a bicinchoninic acid kit [Smith P K, et al., Measurement of protein using bicinchoninic acid, Anal Biochem., 1985, 150 (1), 76-85)].
Test Example 2: Measurement of Inhibitory Effects Against Proton Pump (H^+/K^+-ATPase) Activity
The inhibitory effects of the compounds against proton pump activity were calculated based on the pump activity determined in the presence of K^+ ions excluding the pump activity determined in the absence of K^+ ions. The inhibitory effects against proton pump activity were measured in 96-well plates, and all reactions were performed with a reaction volume of […] at 37° C. Specifically, 10 μm of valinomycin and each concentration of each compound were pre-incubated in a reaction buffer (50 mmol/L Tris-Hepes buffer, pH 6.4) containing porcine gastric vesicles for 15 minutes. For negative and positive control groups, 1% DMSO was added to buffer, and for test groups, 1% DMSO and a dilution of each concentration of each compound were added. Next, 0.2 mmol/L of adenosine triphosphate (ATP) was added to the reaction buffer and incubated at 37° C. for 40 minutes. After completion of the incubation, a malachite green solution was added to the reaction buffer and incubated for 30 minutes, and the amount of inorganic phosphate in the reaction buffer was measured by colorimetry using a malachite green phosphate assay Kit (Bioassay Systems). For colorimetry, the OD (optical density) at 620 nm was measured using a microplate reader [Synergy H4, hybrid multimode microplate reader, BioTek]. The percent inhibition of proton pump (H^+/K^+-ATPase) was determined based on the OD value of the control group and the OD values of various concentrations of the test compounds, and the IC50 of each test compound was calculated using the Logistic 4-parameter function of Sigmaplot 8.0 program.

[2] = tested on: esophageal injury in reflux esophagitis models; assay: Inhibitory effects against esophageal injury in reflux esophagitis models; assay type: in vivo, Sprague Dawley (SD) rats; conditions: Rattus norvegicus; percent inhibition of esophageal injury area vs control; rats, 2 mg/kg oral 1 hour before ligation, measured 6 hours after ligation; read-out: GERD (rat/mpk)
Experimental: Test Example 3: Inhibitory Effects against Esophageal Injury in Reflux Esophagitis Models The inhibitory effects of the compounds of the present disclosure against esophageal injury in reflux esophagitis models were evaluated according to the method of Nakamura [Nakamura K, et al., Effects of sodium polyacrylate (PANa) on acute esophagitis by gastric juice in rats, Jpn J Pharmacology, 1982, 32, 445-56]. Male Sprague Dawley (SD) rats (weighing 180-210 g) were divided into X groups (n=6) and fasted without water for 24 hours. Then, the control group was administered orally with only 10% DMSO, 10% Cremophor EL and 80% water, and the other groups were administered orally with 2 mg/kg/2 ml of each test compound together with 10% DMSO, 10% Cremophor EL and 80% water. At 1 hour after administration of the excipients and each compound, the abdominal cavity of each rate was incised under isoflurane anesthesia, and the pylorus was ligated, and the boundary between the anterior portion and the body was also ligated. At 6 hours after ligation, the test animals were euthanized, and the esophagus ranging from the thyroid to the cardiac portion was carefully extracted. The extracted esophagus was incised in a longitudinal direction and spread so as to expose the mucosa and was then fixed, after which the area of esophageal injury was measured. Percent (%) inhibitory activity of test compounds={(total esophageal injury area of control group−esophageal injury area of group treated with test compound)/total esophageal injury area of control group}×100.

Row | SMILES | IC50 [1] [nM] | inhibition in vivo at 2 mg/kg [2] [%]
1 | Cc1cccc(C)c1CNc1cc(C(=O)N2CC3(CNC3)C2)cn2c(C)c(C)nc12 [Example 21, {8-[(2,6-dimethylbenzyl)amino]-2,3-dimethylimidazo[1,2-α]pyridin-6-yl}(2,6-diazaspiro[3.3]heptan-2-yl)methanone] | 600 | 
2 | Cc1ccccc1CNc1cc(C(=O)N2CC(O)C2)cn2c(C)c(C)nc12 [Example 23, {2,3-dimethyl-8-[(2-methylbenzyl)amino]imidazo[1,2-α]pyridin-6-yl}(3-hydroxyazetidin-1-yl)methanone] | 374 | 
3 | Cc1cc(F)ccc1CNc1cc(C(=O)N2CC(O)C2)cn2c(C)c(C)nc12 [Example 27, {8-[(4-fluoro-2-methylbenzyl)amino]-2,3-dimethylimidazo[1,2-α]pyridin-6-yl}(3-hydroxyazetidin-1-yl)methanone] | 135 | 
4 | Cc1cc(F)ccc1CNc1cc(C(=O)N2CCC2)cn2c(C)c(C)nc12 [Example 28, azetidin-1-yl {8-[(4-fluoro-2-methylbenzyl)amino]-2,3-dimethylimidazo[1,2-α]pyridin-6-yl}methanone] | 103 | 
5 | Cc1cc(F)ccc1CNc1cc(C(=O)N2CC(F)C2)cn2c(C)c(C)nc12 [Example 29, {8-[(4-fluoro-2-methylbenzyl)amino]-2,3-dimethylimidazo[1,2-α]pyridin-6-yl}(3-fluoroazetidin-1-yl)methanone] | 645 | 
6 | Cc1cc(F)ccc1CNc1cc(C(=O)N2CC(C)C2)cn2c(C)c(C)nc12 [Example 30, {8-[(4-fluoro-2-methylbenzyl)amino]-2,3-dimethylimidazo[1,2-α]pyridin-6-yl}(3-methylazetidin-1-yl)methanone] | 271 | 
7 | Cc1cc(F)ccc1CNc1cc(C(=O)N2CC(C)(O)C2)cn2c(C)c(C)nc12 [Example 31, {8-[(4-fluoro-2-methylbenzyl)amino]-2,3-dimethylimidazo[1,2-α]pyridin-6-yl}(3-hydroxy-3-methylazetidine-1-yl)methanone] | 662 | 
8 | COC1(C)CN(C(=O)c2cc(NCc3c(C)cccc3C)c3nc(C)c(C)n3c2)C1 [Example 32, {8-[(2,6-dimethylbenzyl)amino]-2,3-dimethylimidazo[1,2-α]pyridin-6-yl}(3-methoxy-3-methylazetidin-1-yl)methanone] | 187 | 
9 | Cc1cc(F)ccc1CNc1cc(C(=O)N2CC(CO)C2)cn2c(C)c(C)nc12 [Example 33, {8-[(4-fluoro-2-methylbenzyl)amino]-2,3-dimethylimidazo[1,2-α]pyridin-6-yl}(3-(hydroxymethyl)azetidin-1-yl)methanone] | 143 | 92.7
10 | COCC1CN(C(=O)c2cc(NCc3c(C)cc(F)cc3C)c3nc(C)c(C)n3c2)C1 [Example 40, {8-[(4-fluoro-2,6-dimethylbenzyl)amino]-2,3-dimethylimidazo[1,2-α]pyridin-6-yl}[3-(methoxymethyl)azetidin-1-yl]methanone] | 134 | 
11 | Cc1ccc(F)c(C)c1CNc1cc(C(=O)N2CC(O)C2)cn2c(C)c(C)nc12 [Example 41, {8-[(3-fluoro-2,6-dimethylbenzyl)amino]-2,3-dimethylimidazo[1,2-α]pyridin-6-yl}(3-hydroxyazetidin-1-yl)methanone] | 149 | 
12 | Cc1ccc(F)c(C)c1CNc1cc(C(=O)N2CC(F)C2)cn2c(C)c(C)nc12 [Example 43, {8-[(3-fluoro-2,6-dimethylbenzyl)amino]-2,3-dimethylimidazo[1,2-α]pyridin-6-yl}(3-fluoroazetidin-1-yl)methanone] | 174 | 
13 | Cc1ccc(Cl)c(C)c1CNc1cc(C(=O)N2CC(O)C2)cn2c(C)c(C)nc12 [Example 46] | 163 | 
14 | Cc1ccc(Cl)c(C)c1CNc1cc(C(=O)N2CC(F)C2)cn2c(C)c(C)nc12 [Example 47, {8-[(3-chloro-2,6-dimethylbenzyl)amino]-2,3-dimethylimidazo[1,2-α]pyridin-6-yl}(3-fluoroazetidin-1-yl)methanone] | 624 | 
15 | Cc1ccc(Cl)c(C)c1CNc1cc(C(=O)N2CC(CO)C2)cn2c(C)c(C)nc12 [Example 48, {8-[(3-chloro-2,6-dimethylbenzyl)amino]-2,3-dimethylimidazo[1,2-α]pyridin-6-yl}[3-(hydroxymethyl)azetidin-1-yl]methanone] | 102 | 

Stronger by IC50 [1], values ahead:

Row | IC50 [1] [nM] | SMILES | inhibition in vivo at 2 mg/kg [2] [%]
16 | 96 | Cc1cccc(C)c1CNc1cc(C(=O)N2CC(C)C2)cn2c(C)c(C)nc12 [Example 8, {8-[(2,6-dimethylbenzyl)amino]-2,3-dimethylimidazo[1,2-α]pyridin-6-yl}(3-methylazetidin-1-yl)methanone] | 95.4
17 | 85 | Cc1ccc(F)c(C)c1CNc1cc(C(=O)N2CCC2)cn2c(C)c(C)nc12 [Example 42, azetidin-1-yl{8-[(3-fluoro-2,6-dimethylbenzyl)amino]-2,3-dimethylimidazo[1,2-α]pyridin-6-yl}methanone] | 
18 | 81 | Cc1ccc(Cl)c(C)c1CNc1cc(C(=O)N2CCC2)cn2c(C)c(C)nc12 [Example 45, azetidin-1-yl{8-[(3-chloro-2,6-dimethylbenzyl)amino]-2,3-dimethylimidazo[1,2-α]pyridin-6-yl}methanone] | 
19 | 79 | Cc1cccc(C)c1CNc1cc(C(=O)N2CC3(COC3)C2)cn2c(C)c(C)nc12 [Example 22, {8-[(2,6-dimethylbenzyl)amino]-2,3-dimethylimidazo[1,2-α]pyridin-6-yl}(2-oxa-6-azaspiro[3.3]heptan-6-yl)methanone] | 
20 | 69 | Cc1cccc(C)c1CNc1cc(C(=O)N2CC(C)(O)C2)cn2c(C)c(C)nc12 [Example 9, {8-[(2,6-dimethylbenzyl)amino]-2,3-dimethylimidazo[1,2-α]pyridin-6-yl}(3-hydroxy-3-methylazetidin-1-yl)methanone] | 77.2
21 | 61 | Cc1ccc(F)c(C)c1CNc1cc(C(=O)N2CC(CO)C2)cn2c(C)c(C)nc12 [Example 44, {8-[(3-fluoro-2,6-dimethylbenzyl)amino]-2,3-dimethylimidazo[1,2-α]pyridin-6-yl}[3-(hydroxymethyl)azetidin-1-yl]methanone] | 
22 | 41 | Cc1cc(F)cc(C)c1CNc1cc(C(=O)N2CC(C)(O)C2)cn2c(C)c(C)nc12 [Example 38, {8-[(4-fluoro-2,6-dimethylbenzyl)amino]-2,3-dimethylimidazo[1,2-α]pyridin-6-yl}(3-hydroxy-3-methylazetidin-1-yl)methanone] | 
23 | 29 | Cc1cc(F)cc(C)c1CNc1cc(C(=O)N2CC(F)C2)cn2c(C)c(C)nc12 [Example 36, {8-[(4-fluoro-2,6-dimethylbenzyl)amino]-2,3-dimethylimidazo[1,2-α]pyridin-6-yl}(3-fluoroazetidin-1-yl)methanone] | 98.2
24 | 28 | Cc1cc(F)cc(C)c1CNc1cc(C(=O)N2CC(O)C2)cn2c(C)c(C)nc12 [Example 34, {8-[(4-fluoro-2,6-dimethylbenzyl)amino]-2,3-dimethylimidazo[1,2-α]pyridin-6-yl}(3-hydroxyazetidin-1-yl)methanone] | 91.4
25 | 21 | Cc1cc(F)cc(C)c1CNc1cc(C(=O)N2CC(C)C2)cn2c(C)c(C)nc12 [Example 37, {8-[(4-fluoro-2,6-dimethylbenzyl)amino]-2,3-dimethylimidazo[1,2-α]pyridin-6-yl}(3-methylazetidin-1-yl)methanone] | 
26 | 16 | Cc1cc(F)cc(C)c1CNc1cc(C(=O)N2CCC2)cn2c(C)c(C)nc12 [Example 35, azetidin-1-yl{8-[(4-fluoro-2,6-dimethylbenzyl)amino]-2,3-dimethylimidazo[1,2-α]pyridin-6-yl}methanone] | 
